# Reference: patent publication US10189826B2, “Heterocyclic compounds and methods of use” (Medivation Technologies LLC, priority 2015, dated 2019)
# Read-outs that look alike come from different tables or passages of the source.
# Assays:
# [1] = Cytotoxicity assay (LDH release) in HepG2_LSSprom cells; format: cell-based; conditions: human, HepG2 LSSprom cells, 24 h treatment, LDH release
# Method: (§1) HepG2_LSSprom cells (SwitchGear Genomics, cat# C711010L) were cultured in DMEM with 10% of fetal bovine serum (FBS), supplemented with Puromycin (1 μg/mL), 1% Penicillin/Streptomycin (Pen-Strep), 37° C., humidified, 95% air and 5% CO2. Culture media was refreshed every 2 or 3 days. Cells were used between passage number 6-12.
# For cytotoxicity assays, cells were plated out at 20,000 cells/well in transparent 96 well plates in DMEM plus 10% FBS and 1% Pen-Strep without puromycin. After 1 day, cells were treated with Compound by diluting in culture medium without FBS to a final concentration of 0.625, 1.25, 2.5, 3.75, 5 and 10 μM. Compound was prepared by dilutions of 10 mM stock aliquots. As a negative control culture medium was used without FBS plus DMSO. As maximum LDH release control (Lysis control) a lysis buffer provided by the kit manufacturer was used. Treatments with Compound were maintained for 6 h, or 24 h, in cell culture medium without serum until the cytotoxicity assay was started.
# The cytotoxicity assay was performed according to the manufacturer's instructions. As maximum LDH release control (Lysis control) 3 wells per plate were treated with 10 μL of lysis buffer 45 min before the treatment was over. Briefly, after the 6 h, or 24 h, of treatment, 50 μL of media from each well was transferred to a new 96-well plate. To the transferred media, 50 μL of reconstituted substrate mix was added. The plates were covered from light and incubated at RT for 10 min. Then, 50 μL of stop solution was added to each well. The plates were then read using a Synergy 4 (Biotek) equipment recording the absorbance at 490 nm.
# (§2) Five independent experiments were carried out for both luciferase and cytotoxicity assay. In each experiment, three wells were use per condition and the results are represented as means±SEM.
# For cytotoxicity assay, Lysis control was taken as 100%/o of LDH release. The vehicle values were taken as basal LDH release and were subtracted to all the treatments (including vehicle itself) having this value as 0% of LDH release. The LDH release for the treatments was calculated respect to the 100% of LDH release of Lysis control normalized against vehicle. All the negatives values were taken as 0% of cytotoxicity. The graphics were made using the Graph Prism ver. 6.05 software.
# [2] = test system: SREBP-2 transcriptional activity (SREBP2 cleavage) in HepG2_LSSprom cells; test: Luciferase reporter driven by a SREBP-2 specific promoter in HepG2_LSSprom cells; format: cell-based; conditions: 24 h, read-out: SREBP2 Cleavage (IC50 μM) 24 h
# Method: Dose response effects were measured of Compounds on the transcriptional activity of a Luciferase reporter driven by a SREBP-2 specific promoter in HepG2_LSSprom cells.
# as §1
# For luminescence assays, cells were plated out at 20,000 cells/well in white 96 well plates in DMEM plus 10% FBS and 1% Pen-Strep without puromycin. After 1 day, cells were treated with Compound by diluting the drug in culture medium without FBS to a final concentration of 0.625, 1.25, 2.5, 3.75, 5 and 10 μM. Drug was prepared by dilutions of 10 mM stock aliquots. As control was used culture medium without FBS plus DMSO. Treatments with Compound were maintained for 6 h, or 24 h, until the luciferase assay was carried out.
# After 6 h of treatments with Compound, the luciferase assay was performed. Briefly, the assay solution (buffer+substrate) was prepare just prior to use. To each well 100 μL of assay solution was added. The 96-well plate was then gently mix for 2 min and incubated for 30 min at RT protected from light. The luminescence was read using a Synergy 4 (Biotek) equipment recording luminescence with sensibility set up at 150.
# as §2
# For luciferase assay, Vehicle (no treatment) was taken as 100% of luciferase activity. This value represents the SREBP-2 transcriptional activity for the vehicle condition and was taken as 100% of SREBP-2 cleaved. The percentage for each treatment was calculated normalizing against the vehicle control. The graphics were made using the GraphPad Prism ver. 6.05 software. Half of maximal inhibitory concentration (IC50) of the effect of Compound on SREBP was obtain by nonlinear fit regression of mean normalized values vs. Compound concentration using the log(inhibitor) vs. response−Variable slope (four parameters) tool.
# [3] = 24 h treatment, HepG2_LSSprom cells
Compound,"IC50 [2, 3]",IC50 at 24 h [1],IC50 [2]
"CC(C)(C)c1cc(-c2cc(-c3ccc(C(=O)N4CCCC(NCc5ccc(Cl)cc5)C4)cc3Cl)cs2)ccn1 (stereo not shown) [Compound 80, 1-{4-[5-(2-tert-butylpyridin-4-yl)thiophen-3-yl]-3-chlorobenzoyl}-N-[(4-chlorophenyl)methyl]piperidin-3-amine]",0.06 µM,> 10 µM,
"CC(C)(C)c1cc(-c2cc(-c3ccc(C(=O)N4CCC(NS(C)(=O)=O)CC4)cc3Cl)cs2)ccn1 [Compound 59, N-(1-{4-[5-(2-tert-butylpyridin-4-yl)thiophen-3-yl]-3-chlorobenzoyl}piperidin-4-yl)methanesulfonamide]",1.6 µM,> 10 µM,
"CC(C)(C)OC(=O)N[C@@H]1CCCN(C(=O)c2ccc(-c3cc(-c4ccnc(C(C)(C)C)c4)cs3)c(Cl)c2)C1 [Compound 69, tert-butyl N-[(3R)-1-{4-[4-(2-tert-butylpyridin-4-yl)thiophen-2-yl]-3-chlorobenzoyl}piperidin-3-yl]carbamate]",0.015 µM,> 10 µM,
"CC(C)(C)c1cc(-c2cc(-c3ccc(C(=O)N4CCN5CCCC5C4)cc3Cl)cs2)ccn1 (stereo not shown) [Compound 84, 2-tert-butyl-4-[4-(2-chloro-4-{octahydropyrrolo[1,2-a]piperazine-2-carbonyl}phenyl)thiophen-2-yl]pyridine]",> 3 µM,> 10 µM,
"CC(C)(C)c1cc(-c2cc(-c3ccc(C(=O)N4CCC(N)CC4)cc3Cl)cs2)ccn1 [Compound 72, 1-{4-[5-(2-tert-butylpyridin-4-yl)thiophen-3-yl]-3-chlorobenzoyl}piperidin-4-amine]",> 10 µM,> 10 µM,
"CC(C)N1CCc2cc(-c3csc(-c4ccnc(C(C)(C)C)c4)c3)c(Cl)cc2C1=O [Compound 52, 6-[5-(2-tert-butylpyridin-4-yl)thiophen-3-yl]-7-chloro-2-(propan-2-yl)-1,2,3,4-tetrahydroisoquinolin-1-one]",1.7 µM,> 10 µM,
"CNC1CCCN(C(=O)c2ccc(-c3csc(-c4ccnc(C(C)(C)C)c4)c3)c(Cl)c2)C1 (stereo not shown) [Compound 75, 1-{4-[5-(2-tert-butylpyridin-4-yl)thiophen-3-yl]-3-chlorobenzoyl}-N-methylpiperidin-3-amine]",3.2 µM,> 10 µM,
"C[C@@H]1CN(C(=O)c2ccc(-c3csc(-c4ccnc(C(C)(C)C)c4)c3)c(Cl)c2)C[C@H](C)O1 [Compound 50, (2R,6S)-4-{4-[5-(2-tert-butylpyridin-4-yl)thiophen-3-yl]-3-chlorobenzoyl}-2,6-dimethylmorpholine]",1.3 µM,> 10 µM,
"CC(C)(C)c1cc(-c2csc(-c3ccc(C(=O)N4CCCC(N5CCNC5=O)C4)cc3Cl)c2)ccn1 (stereo not shown) [Compound 94, 1-[1-{4-[4-(2-tert-butylpyridin-4-yl)thiophen-2-yl]-3-chlorobenzoyl}piperidin-3-yl]imidazolidin-2-one]",0.52 µM,> 10 µM,
"CN(C(=O)c1ccc(-c2csc(-c3ccnc(C(C)(C)C)c3)c2)c(Cl)c1)c1ncco1 [Compound 60, 4-[5-(2-tert-butylpyridin-4-yl)thiophen-3-yl]-3-chloro-N-methyl-N-(1,3-oxazol-2-yl)benzamide]",3.5 µM,> 10 µM,
"CC(=O)NC1CCCN(C(=O)c2ccc(-c3csc(-c4ccnc(C(C)(C)C)c4)c3)c(Cl)c2)C1 (racemic) [Compound 32, N-[1-[4-[5-(2-tert-butyl-4-pyridyl)-3-thienyl]-3-chloro-benzoyl]-3-piperidyl]acetamide]",,> 10 µM,0.81 µM
"CC(C)(C)OC(=O)N[C@H]1CCCN(C(=O)c2ccc(-c3csc(-c4ccnc(C(C)(C)C)c4)c3)c(Cl)c2)C1 [Compound 19b, tert-butyl (S)-(1-(4-(5-(2-(tert-butyl)pyridin-4-yl)thiophen-3-yl)-3-chlorobenzoyl)piperidin-3-yl)carbamate]",0.22 µM,> 10 µM,
"Cc1sc(-c2ccc(C(=O)N3CCNC(=O)C3)cc2Cl)cc1-c1ccnc(C(C)(C)C)c1 [Compound 77, 4-{4-[4-(2-tert-butylpyridin-4-yl)-5-methylthiophen-2-yl]-3-chlorobenzoyl}piperazin-2-one]",2.3 µM,> 10 µM,
"CC(C)(C)c1cc(-c2cc(-c3ccc(C(=O)N4CCNCC4)cc3Cl)cs2)ccn1 [Compound 28, 1-{4-[5-(2-tert-butylpyridin-4-yl)thiophen-3-yl]-3-chlorobenzoyl}piperazine]",> 3 µM,> 10 µM,
"CC(C)(C)OC(=O)NC1CCCN(C(=O)c2ccc(-c3csc(-c4ccnc(N5CCOCC5)c4)c3)c(Cl)c2)C1 (stereo not shown) [Compound 64, tert-butyl N-[1-(3-chloro-4-{5-[2-(morpholin-4-yl)pyridin-4-yl]thiophen-3-yl}benzoyl)piperidin-3-yl]carbamate]",0.4 µM,> 10 µM,
"NC1CCCN(C(=O)c2ccc(-c3csc(-c4ccnc(N5CCOCC5)c4)c3)c(Cl)c2)C1 (stereo not shown) [Compound 65, 1-(3-chloro-4-(5-[2-(morpholin-4-yl)pyridin-4-yl]thiophen-3-yl)benzoyl)piperidin-3-amine]",2.4 µM,> 10 µM,

# Continued, in another order:
"IC50 [2, 3]",Compound,IC50 at 24 h [1],IC50 [2]
0.095 µM,"CC(C)(C)c1cc(-c2cc(-c3ccc(C(=O)N4CCC[C@@H](NCc5ccc(Cl)cc5)C4)cc3Cl)cs2)ccn1 [Compound 80a, (R)-(4-(5-(2-(tert-butyl)pyridin-4-yl)thiophen-3-yl)-3-chlorophenyl)(3-((4-chlorobenzyl)amino)piperidin-1-yl)methanone]",> 10 µM,
0.03 µM,"CC(C)(C)c1cc(-c2csc(-c3ccc(C(=O)N4CCC[C@@H](O)C4)cc3Cl)c2)ccn1 [Compound 89a, (R)-(4-(4-(2-(tert-butyl)pyridin-4-yl)thiophen-2-yl)-3-chlorophenyl)(3-hydroxypiperidin-1-yl)methanone]",> 10 µM,
> 10 µM,"Cc1sc(-c2ccc(C(=O)N3CCC[C@@H](N)C3)cc2Cl)cc1-c1ccnc(C(C)(C)C)c1 [Compound 87b, (3R)-1-{4-[4-(2-tert-butylpyridin-4-yl)-5-methylthiophen-2-yl]-3-chlorobenzoyl}piperidin-3-amine]",> 10 µM,
0.31 µM,"CC(C)(C)c1cc(-c2cc(-c3ccc(C(=O)N4CCC[C@@H](O)C4)cc3Cl)cs2)ccn1 [Compound 48a, (R)-(4-(5-(2-(tert-butyl)pyridin-4-yl)thiophen-3-yl)-3-chlorophenyl)(3-hydroxypiperidin-1-yl)methanone]",> 10 µM,
> 3 µM,"CC(C)(C)c1cc(-c2cc(-c3ccc(C(=O)N4CCC[C@H](N)C4)cc3Cl)cs2)ccn1 [Compound 21b, (S)-(3-aminopiperidin-1-yl)(4-(5-(2-(tert-butyl)pyridin-4-yl)thiophen-3-yl)-3-chlorophenyl)methanone]",> 10 µM,
0.15 µM,"CC(C)(C)c1cc(-c2csc(-c3ccc(C(=O)N4CC[C@H](O)C4)cc3Cl)c2)ccn1 [Compound 68a, (3S)-1-{4-[4-(2-tert-butylpyridin-4-yl)thiophen-2-yl]-3-chlorobenzoyl}pyrrolidin-3-ol]",> 10 µM,
0.51 µM,"CC(C)(C)c1cc(-c2csc(-c3ccc(C(=O)N4CCC[C@H](N)C4)cc3Cl)c2)ccn1 [Compound 74b, (3S)-1-{4-[4-(2-tert-butylpyridin-4-yl)thiophen-2-yl]-3-chlorobenzoyl}piperidin-3-amine]",> 10 µM,
